Experimental data from PubChem BioAssay (NCI).
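Method: 48-hour compound exposure of cells in 96-well plates, five concentrations, linear interpolation of endpoints. GI50 marks 50% less growth. TGI denotes the concentration required for complete inhibition of growth.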

Key:
Assay in all cases: inhibition of tumour cell growth, NCI panel, 48 h
MDA-MB-231 breast = test system: MDA-MB-231 breast
HCC-2998 colon = test system: HCC-2998 colon
U251 CNS = test system: U251 CNS
HT29 colon = test system: HT29 colon
PC-3 prostate = test system: PC-3 prostate
UACC-257 melanoma = test system: UACC-257 melanoma
M14 melanoma = test system: M14 melanoma
HOP-92 NSCLC = test system: HOP-92 NSCLC
EKVX NSCLC = test system: EKVX NSCLC
UACC-62 melanoma = test system: UACC-62 melanoma
UO-31 renal = test system: UO-31 renal
NCI/ADR-RES ovarian = test system: NCI/ADR-RES ovarian
KM12 colon = test system: KM12 colon
IGROV1 ovarian = test system: IGROV1 ovarian
A549 NSCLC = test system: A549 NSCLC
SK-MEL-5 melanoma = test system: SK-MEL-5 melanoma
SW-620 colon = test system: SW-620 colon
SR leukemia = test system: SR leukemia
MCF7 breast = test system: MCF7 breast
HOP-62 NSCLC = test system: HOP-62 NSCLC
LOX IMVI melanoma = test system: LOX IMVI melanoma
RXF 393 renal = test system: RXF 393 renal
NCI-H23 lung = test system: NCI-H23 lung
NCI-H226 lung = test system: NCI-H226 lung
SNB-75 CNS = test system: SNB-75 CNS
CAKI-1 renal = test system: CAKI-1 renal
A498 renal = test system: A498 renal
T-47D breast = test system: T-47D breast
BT-549 breast = test system: BT-549 breast
OVCAR-5 ovarian = test system: OVCAR-5 ovarian
HCT-116 colon = test system: HCT-116 colon
ACHN renal = test system: ACHN renal
SF-295 CNS = test system: SF-295 CNS
SK-OV-3 ovarian = test system: SK-OV-3 ovarian
SNB-19 CNS = test system: SNB-19 CNS
MOLT-4 leukemia = test system: MOLT-4 leukemia
TK-10 renal = test system: TK-10 renal
SF-268 CNS = test system: SF-268 CNS
OVCAR-8 ovarian = test system: OVCAR-8 ovarian
HS 578T breast = test system: HS 578T breast
SF-539 CNS = test system: SF-539 CNS
HCT-15 colon = test system: HCT-15 colon
MDA-MB-435 = test system: MDA-MB-435
SK-MEL-2 melanoma = test system: SK-MEL-2 melanoma
RPMI-8226 leukemia = test system: RPMI-8226 leukemia
OVCAR-3 ovarian = test system: OVCAR-3 ovarian
SN12C renal = test system: SN12C renal
K-562 leukemia = test system: K-562 leukemia
SK-MEL-28 melanoma = test system: SK-MEL-28 melanoma
COLO 205 colon = test system: COLO 205 colon
HL-60(TB) leukemia = test system: HL-60(TB) leukemia
CCRF-CEM leukemia = test system: CCRF-CEM leukemia
NCI-H460 lung = test system: NCI-H460 lung
OVCAR-4 ovarian = test system: OVCAR-4 ovarian
DU-145 prostate = test system: DU-145 prostate
786-0 renal = test system: 786-0 renal
MALME-3M melanoma = test system: MALME-3M melanoma
NCI-H522 lung = test system: NCI-H522 lung

SMILES: c1ccc(Sc2ncnc3ccccc23)cc1
- GI50 (MDA-MB-231 breast): 13.5 µM
- TGI (MDA-MB-231 breast): 49.9 µM
- GI50 (HCC-2998 colon): 15.4 µM
- TGI (HCC-2998 colon): 28.7 µM
- GI50 (U251 CNS): 12.9 µM
- TGI (U251 CNS): 31.8 µM
- GI50 (HT29 colon): 19.3 µM
- TGI (HT29 colon): 44.7 µM
- GI50 (PC-3 prostate): 12.3 µM
- TGI (PC-3 prostate): 60 µM
- GI50 (UACC-257 melanoma): 11.9 µM
- TGI (UACC-257 melanoma): 34.7 µM
- GI50 (M14 melanoma): 12.3 µM
- TGI (M14 melanoma): 27.6 µM
- GI50 (HOP-92 NSCLC): 4.49 µM
- TGI (HOP-92 NSCLC): 27.5 µM
- GI50 (EKVX NSCLC): 10.6 µM
- TGI (EKVX NSCLC): 25.1 µM
- GI50 (UACC-62 melanoma): 9.06 µM
- TGI (UACC-62 melanoma): 23.5 µM
- GI50 (UO-31 renal): 5.07 µM
- TGI (UO-31 renal): 21.1 µM
- GI50 (NCI/ADR-RES ovarian): 11.8 µM
- TGI (NCI/ADR-RES ovarian): 35 µM
- GI50 (KM12 colon): 13.2 µM
- TGI (KM12 colon): 28.2 µM
- GI50 (IGROV1 ovarian): 4.5 µM
- TGI (IGROV1 ovarian): 34.3 µM
- GI50 (A549 NSCLC): 18.1 µM
- TGI (A549 NSCLC): 68.3 µM
- GI50 (SK-MEL-5 melanoma): 11.4 µM
- TGI (SK-MEL-5 melanoma): 24 µM
- GI50 (SW-620 colon): 14.6 µM
- TGI (SW-620 colon): 34.8 µM
- GI50 (SR leukemia): 4.78 µM
- TGI (SR leukemia): 53.1 µM
- GI50 (MCF7 breast): 17.8 µM
- TGI (MCF7 breast): 67.9 µM
- GI50 (HOP-62 NSCLC): 16.3 µM
- TGI (HOP-62 NSCLC): 40.5 µM
- GI50 (LOX IMVI melanoma): 6.27 µM
- TGI (LOX IMVI melanoma): 19.8 µM
- GI50 (RXF 393 renal): 13.4 µM
- TGI (RXF 393 renal): 27.1 µM
- GI50 (NCI-H23 lung): 8.52 µM
- TGI (NCI-H23 lung): 25.7 µM
- GI50 (NCI-H226 lung): 13.4 µM
- TGI (NCI-H226 lung): 56.2 µM
- GI50 (SNB-75 CNS): 12.1 µM
- TGI (SNB-75 CNS): 35 µM
- GI50 (CAKI-1 renal): 12.7 µM
- TGI (CAKI-1 renal): 32.3 µM
- GI50 (A498 renal): 15.4 µM
- TGI (A498 renal): 39.2 µM
- GI50 (T-47D breast): 9.72 µM
- TGI (T-47D breast): 28.4 µM
- GI50 (BT-549 breast): 5.42 µM
- TGI (BT-549 breast): 22 µM
- GI50 (OVCAR-5 ovarian): 19.2 µM
- TGI (OVCAR-5 ovarian): 37.2 µM
- GI50 (HCT-116 colon): 10.9 µM
- TGI (HCT-116 colon): 23.7 µM
- GI50 (ACHN renal): 11 µM
- TGI (ACHN renal): 31.6 µM
- GI50 (SF-295 CNS): 14.2 µM
- TGI (SF-295 CNS): 45.6 µM
- GI50 (SK-OV-3 ovarian): 22.1 µM
- TGI (SK-OV-3 ovarian): 49.6 µM
- GI50 (SNB-19 CNS): 18.6 µM
- TGI (SNB-19 CNS): 51.5 µM
- GI50 (MOLT-4 leukemia): 4.98 µM
- TGI (MOLT-4 leukemia): 36 µM
- GI50 (TK-10 renal): 27.6 µM
- TGI (TK-10 renal): > 100 µM
- GI50 (SF-268 CNS): 13.9 µM
- TGI (SF-268 CNS): 41.7 µM
- GI50 (OVCAR-8 ovarian): 19.8 µM
- TGI (OVCAR-8 ovarian): 75.9 µM
- GI50 (HS 578T breast): 29.5 µM
- TGI (HS 578T breast): > 100 µM
- GI50 (SF-539 CNS): 15.9 µM
- TGI (SF-539 CNS): 34.2 µM
- GI50 (HCT-15 colon): 8.03 µM
- TGI (HCT-15 colon): 37.2 µM
- GI50 (MDA-MB-435): 8.19 µM
- TGI (MDA-MB-435): 32.5 µM
- GI50 (SK-MEL-2 melanoma): 22.6 µM
- TGI (SK-MEL-2 melanoma): 63 µM
- GI50 (RPMI-8226 leukemia): 9.49 µM
- TGI (RPMI-8226 leukemia): 37.6 µM
- GI50 (OVCAR-3 ovarian): 14.6 µM
- TGI (OVCAR-3 ovarian): 28 µM
- GI50 (SN12C renal): 10.8 µM
- TGI (SN12C renal): 27.4 µM
- GI50 (K-562 leukemia): 9.72 µM
- TGI (K-562 leukemia): > 100 µM
- GI50 (SK-MEL-28 melanoma): 23.7 µM
- TGI (SK-MEL-28 melanoma): 89.2 µM
- GI50 (COLO 205 colon): 15 µM
- TGI (COLO 205 colon): 28.3 µM
- GI50 (HL-60(TB) leukemia): 6.37 µM
- TGI (HL-60(TB) leukemia): 27.9 µM
- GI50 (CCRF-CEM leukemia): 2.9 µM
- TGI (CCRF-CEM leukemia): 61.4 µM
- GI50 (NCI-H460 lung): 24.2 µM
- TGI (NCI-H460 lung): > 100 µM
- GI50 (OVCAR-4 ovarian): 8.05 µM
- TGI (OVCAR-4 ovarian): > 100 µM
- GI50 (DU-145 prostate): 12 µM
- TGI (DU-145 prostate): 24.9 µM
- GI50 (786-0 renal): 14.9 µM
- TGI (786-0 renal): 34.5 µM
- GI50 (MALME-3M melanoma): 10.8 µM
- TGI (MALME-3M melanoma): 29.8 µM
- GI50 (NCI-H522 lung): 7.19 µM
- TGI (NCI-H522 lung): 29.1 µM
